The text below walks through data of patent US20040006136A1, “Anthelmintics for preventing parasitic infections in human and animals” (priority 2000, published 2004).

SMILES strings stand for the structures.

Assay [1] has as its system cercariae of Schistosoma mansoni. Particulars: topical agent; Salafsky et al. 1998; cited from earlier work.
For assay [2] the test system is unchanged. Particulars: topical, monkeys; Bruce et al. 1992; cited from earlier work.
In assay [3] the test system is Schistosoma mansoni cercariae. As to the kind of experiment: Activity against Schistosoma mansoni cercariae (survival/mobility in water). Format: cell-based. Particulars: 500 μl/l final concentration of the active compound; PEG300/aquarium water; test period of 120 minutes. As for the experimental part:
Activity Against Schistosoma mansoni cercariae
[500 μl/l Final Concentration of the Active Compounds]
Snails (Biomphalaria glabrata) were infected by incubating each of them with 8 miracidia in 10 ml of water overnight. About 6 to 9 weeks after the infection, cercariae were obtained by irradiating the snails, which had been kept in darkness, with light, followed by collection of the swarming cercariae within 2 hours.
Such an amount of cercariae-containing water (1 or 2 ml, see below) was added to the test batches that each batch contained about 100 to 150 cercariae.
5 μl of active compound were mixed thoroughly with 25 μl of PEG300. 9 ml of aquarium water was then added, and the batch was shaken vigorously. After (delayed) addition of 1 ml of cercariae suspension, survival of the cercariae was in each case observed immediately using a stereomagnifier.

Assay [4] concerns cercariae of Schistosoma mansoni. As to conditions: Fripp and Armstrong 1973; cited from earlier work.

Consider `CCN(CC)C(=O)c1cccc(C)c1` [N,N-Diethyl-m-toluamide (DEET), N,N-Diethyl-m-toluamide], for which, in assay [1], the “action against cercariae of Schistosoma mansoni” value is recorded as “acts against cercariae”.
Regarding `O=C(Nc1ccc([N+](=O)[O-])cc1Cl)c1cc(Cl)ccc1O` [Niclosamide], the “action against the penetration of cercariae” value in assay [2] is reported as “acts against the penetration of cercariae”.
In the case of `CCCCOC(=O)CN(CCCC)C(C)=O`, the “activity of the active compounds against cercariae (classification 0-3)” value in assay [3] was 1.
Turning to `Oc1c(Cl)cc(Cl)c(Cl)c1Cc1c(O)c(Cl)cc(Cl)c1Cl` [hexachlorophene], in assay [4], the “effect on cercariae of Schistosoma mansoni” value is “lethal effect”.
